The conditions of this data set: Crystal; visual observation.

SMILES strings stand for the structures. Numbers after ± are expanded uncertainties.

As for `CN(C)c1ccc(C(=C2C=CC(=[N+](C)C)C=C2)c2ccccc2)cc1.CN(C)c1ccc(C(=C2C=CC(=[N+](C)C)C=C2)c2ccccc2)cc1.O=C(O)C(=O)O.O=C([O-])C(=O)O.O=C([O-])C(=O)O` [Malachite green oxalate], the Normal melting temperature was 160.00 ± 1.1 °C.

In the case of `Cc1cc2nc3cc(C)c(N)cc3[n+](-c3ccccc3)c2cc1N.[Cl-]` [Safranine O], the Normal melting temperature was 300.00 ± 1.1 °C.
